Data published in PubChem BioAssay AID256 (DTP/NCI, 2004).
Values joined by “and” are separate entries in the source; they are usually repeats but may differ in a detail not shown here. Identical values can stand only once. Toxic doses and inconclusive results are not listed. Rule for the calls: active = survival T/C of 150% or more; inactive = T/C below 125% in these data.

System: CD2F1 mice, L1210 leukemia ip, survival T/C
Assay: NCI In Vivo Anticancer Drug Screen. Data for tumor model L1210 Leukemia (intraperitoneal) in CD2F1 (CDF1) mice
Settings: higher = longer survival
Outline: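 Vehicle-treated tumor-bearing mice served as controls (C) for compound-treated mice (T). Reported figure is T divided by C.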

[1] = endpoint: mean survival time, dose: 25.0 mg/kg/injection, schedule: Q04DX002 (ip), vehicle: saline with Tween-80
[2] = endpoint: mean survival time, dose: 50.0 mg/kg/injection, schedule: Q04DX002 (ip), vehicle: saline with Tween-80
[3] = endpoint: mean survival time, dose: 100.0 mg/kg/injection, schedule: Q04DX002 (ip), vehicle: saline with Tween-80
[4] = endpoint: mean survival time, dose: 200.0 mg/kg/injection, schedule: Q04DX002 (ip), vehicle: saline with Tween-80
[5] = endpoint: mean survival time, dose: 100.0 mg/kg/injection, schedule: Q01DX009 (ip), vehicle: saline with Tween-80
[6] = endpoint: mean survival time, dose: 200.0 mg/kg/injection, schedule: Q01DX009 (ip), vehicle: saline with Tween-80
[7] = endpoint: mean survival time, dose: 400.0 mg/kg/injection, schedule: Q01DX009 (ip), vehicle: saline with Tween-80
[8] = endpoint: mean survival time, dose: 100.0 mg/kg/injection, schedule: Q04DX003 (ip), vehicle: saline with Tween-80
[9] = endpoint: mean survival time, dose: 200.0 mg/kg/injection, schedule: Q04DX003 (ip), vehicle: saline with Tween-80
[10] = endpoint: mean survival time, dose: 400.0 mg/kg/injection, schedule: Q04DX003 (ip), vehicle: saline with Tween-80
[11] = endpoint: mean survival time, dose: 100.0 mg/kg/injection, schedule: Q04DX003 (ip), vehicle: saline
[12] = endpoint: mean survival time, dose: 200.0 mg/kg/injection, schedule: Q04DX003 (ip), vehicle: saline
[13] = endpoint: mean survival time, dose: 400.0 mg/kg/injection, schedule: Q04DX003 (ip), vehicle: saline
[14] = endpoint: mean survival time, dose: 50.0 mg/kg/injection, schedule: Q01DX009 (ip), vehicle: saline
[15] = endpoint: mean survival time, dose: 100.0 mg/kg/injection, schedule: Q01DX009 (ip), vehicle: saline
[16] = endpoint: mean survival time, dose: 200.0 mg/kg/injection, schedule: Q01DX009 (ip), vehicle: saline
[17] = endpoint: mean survival time, dose: 100.0 mg/kg/injection, schedule: Q04DX002 (ip), vehicle: Klucel (hydroxypropylcellulose) (HPC)
[18] = endpoint: mean survival time, dose: 200.0 mg/kg/injection, schedule: Q04DX002 (ip), vehicle: Klucel (hydroxypropylcellulose) (HPC)
[19] = endpoint: mean survival time, dose: 400.0 mg/kg/injection, schedule: Q04DX002 (ip), vehicle: Klucel (hydroxypropylcellulose) (HPC)
[20] = endpoint: mean survival time, dose: 400.0 mg/kg/injection, schedule: Q04DX002 (ip), vehicle: saline with Tween-80
[21] = endpoint: mean survival time, dose: 400.0 mg/kg/injection, schedule: Q01DX009 (ip), vehicle: saline

Measured: T/C

CCC(=O)OC(=N)C(=N)OC(=O)CC
inactive: [1] 98 % of control | [2] 98 % of control | [3] 98 % of control | [4] 95 % of control

O=C1c2ccc([N+](=O)[O-])cc2-c2c1cccc2[N+](=O)[O-]
inactive: [1] 95 % of control | [2] 87 % of control

O=[N+]([O-])c1cccc(S(=O)(=O)Oc2ccc(-c3ccccc3)cc2)c1
inactive: [5] 87 % of control | [6] 91 % of control | [7] 89 % of control

COc1ccc(OC)c(C=NCCN=Cc2cc(OC)ccc2OC)c1
inactive: [5] 87 % of control | [8] 90 % of control | [6] 95 % of control | [9] 88 % of control | [7] 87 % of control | [10] 87 % of control

O=P1(OCCBr)NCCCO1 (stereo not drawn)
inactive: endpoint: mean survival time, dose: 62.5 mg/kg/injection, schedule: Q01DX001 (ip), vehicle: water 95 % of control | endpoint: mean survival time, dose: 125.0 mg/kg/injection, schedule: Q01DX001 (ip), vehicle: water 101 % of control | endpoint: mean survival time, dose: 250.0 mg/kg/injection, schedule: Q01DX001 (ip), vehicle: water 104 % of control | endpoint: mean survival time, dose: 500.0 mg/kg/injection, schedule: Q01DX001 (ip), vehicle: water 98 % of control | endpoint: mean survival time, dose: 750.0 mg/kg/injection, schedule: Q01DX001 (ip), vehicle: water 101 % of control

CSc1nc(Cl)cc(/N=C/N(C)C)n1
inactive: [5] 102 % of control | [6] 98 % of control

CCCC(C(=O)O)C(CCC)C(=O)O (stereo not drawn)
inactive: [8] 96 % of control | [9] 104 % of control | [10] 101 % of control

COc1c(C)c(Br)c(OC)c2ccccc12
inactive: [8] 94 % of control | [9] 94 % of control | [10] 100 % of control

CCCCNC(=O)Nc1ccc(C(=O)OCC(C)C)cc1
inactive: [5] 94 % of control | [8] 108 % of control | [6] 91 % of control | [9] 94 % of control | [7] 90 % of control | [10] 90 % of control

Cc1cccc(CCc2cccc(C)n2)n1
inactive: [11] 103 % of control | [12] 103 % of control | [13] 103 % of control

O=c1[nH]ccc2sccc12
inactive: [5] 100 % of control | [8] 96 % of control | [6] 105 % of control | [10] 103 % of control

C#CCC(O)CC (stereo not drawn)
inactive: [14] 103 % of control | [15] 107 % of control | [16] 103 % of control

CC1(C)OCC(C2OC(On3nnc4ccc(Cl)cc43)C3OC(C)(C)OC23)O1 (stereo not drawn)
inactive: endpoint: mean survival time, dose: 12.5 mg/kg/injection, schedule: Q01DX005 (ip), vehicle: distilled water + Tween-80 98 % of control | endpoint: mean survival time, dose: 25.0 mg/kg/injection, schedule: Q01DX005 (ip), vehicle: distilled water + Tween-80 96 % of control | endpoint: mean survival time, dose: 50.0 mg/kg/injection, schedule: Q01DX005 (ip), vehicle: distilled water + Tween-80 105 % of control | endpoint: mean survival time, dose: 100.0 mg/kg/injection, schedule: Q01DX005 (ip), vehicle: distilled water + Tween-80 96 % of control | endpoint: mean survival time, dose: 200.0 mg/kg/injection, schedule: Q01DX005 (ip), vehicle: distilled water + Tween-80 105 % of control

CN1CC(NC(=O)N(CCCl)N=O)CC2c3cccc4[nH]cc(c34)CC21 (stereo not drawn)
active: endpoint: mean survival time, dose: 50.0 mg/kg/injection, schedule: Q01DX001 (ip), vehicle: other 154 % of control | endpoint: mean survival time, dose: 100.0 mg/kg/injection, schedule: Q01DX001 (ip), vehicle: other 248 % of control | endpoint: mean survival time, dose: 200.0 mg/kg/injection, schedule: Q01DX001 (ip), vehicle: other 390 % of control
inactive: endpoint: mean survival time, dose: 12.5 mg/kg/injection, schedule: Q01DX001 (ip), vehicle: other 119 % of control | endpoint: mean survival time, dose: 400.0 mg/kg/injection, schedule: Q01DX001 (ip), vehicle: other 98 % of control

Nc1cccc(/C=C/c2cccc([N+](=O)[O-])c2)c1
inactive: [17] 98 % of control | [18] 103 % of control | [19] 103 % of control

C[N+]1(O)C2CCC1CC(O)C2 (stereo not drawn)
inactive: endpoint: mean survival time, dose: 100.0 mg/kg/injection, schedule: Q01DX001 (ip), vehicle: Klucel (hydroxypropylcellulose) (HPC) 97 % of control | endpoint: mean survival time, dose: 200.0 mg/kg/injection, schedule: Q01DX001 (ip), vehicle: Klucel (hydroxypropylcellulose) (HPC) 104 % of control | endpoint: mean survival time, dose: 400.0 mg/kg/injection, schedule: Q01DX001 (ip), vehicle: Klucel (hydroxypropylcellulose) (HPC) 97 % of control

[Br][Pt+2][Br].[NH-]c1cccc(F)c1.[NH-]c1cccc(F)c1
inactive: endpoint: mean survival time, dose: 3.13 mg/kg/injection, schedule: Q04DX003 (ip), vehicle: distilled water + Tween-80 97 % of control | endpoint: mean survival time, dose: 6.25 mg/kg/injection, schedule: Q04DX003 (ip), vehicle: distilled water + Tween-80 103 % of control | endpoint: mean survival time, dose: 12.5 mg/kg/injection, schedule: Q04DX003 (ip), vehicle: distilled water + Tween-80 101 % of control | endpoint: mean survival time, dose: 25.0 mg/kg/injection, schedule: Q04DX003 (ip), vehicle: distilled water + Tween-80 104 % of control | endpoint: mean survival time, dose: 50.0 mg/kg/injection, schedule: Q04DX003 (ip), vehicle: distilled water + Tween-80 109 % of control | endpoint: mean survival time, dose: 100.0 mg/kg/injection, schedule: Q04DX003 (ip), vehicle: distilled water + Tween-80 107 % of control

CCCCS(=O)(=O)CC(O)c1ccccc1 (stereo not drawn)
inactive: [3] 115 % of control | [4] 101 % of control | [20] 104 % of control

CC(C)(C)C(=O)O
inactive: [15] 107 % of control | [11] 89 % of control | [16] 94 % of control | [12] 92 % of control | [13] 93 % of control

CN(C)N=C1CCCCC1
inactive: endpoint: mean survival time, dose: 75.0 mg/kg/injection, schedule: Q01DX001 (ip), vehicle: saline 96 % of control | endpoint: mean survival time, dose: 150.0 mg/kg/injection, schedule: Q01DX001 (ip), vehicle: saline 98 % of control

O=C1C2CCCC1C1/C(=[N+](/[O-])O)C=C([N+](=O)[O-])C2C1[N+](=O)[O-] (stereo not drawn)
inactive: [3] 98 % of control | [4] 98 % of control | [20] 110 % of control

Sc1c(Cl)c(Cl)c(Cl)c(Cl)c1Cl
inactive: [17] 96 % of control | [18] 90 % of control | [19] 90 % of control

O=c1n[n+]([O-])ccn1C1OC(CO)C(O)C1O (stereo not drawn)
inactive: [14] 107 % of control | [15] 120 % of control and 121 % of control | endpoint: mean survival time, dose: 600.0 mg/kg/injection, schedule: Q01DX009 (ip), vehicle: saline 91 % of control
active: endpoint: mean survival time, dose: 300.0 mg/kg/injection, schedule: Q01DX009 (ip), vehicle: saline 157 % of control and 173 % of control | [21] 150 % of control | endpoint: median survival time, dose: 200.0 mg/kg/injection, schedule: Q01DX009 (ip), vehicle: saline 150 % of control | endpoint: median survival time, dose: 288.0 mg/kg/injection, schedule: Q01DX009 (ip), vehicle: saline 161 % of control | endpoint: median survival time, dose: 300.0 mg/kg/injection, schedule: Q01DX009 (ip), vehicle: saline 174 % of control | endpoint: median survival time, dose: 480.0 mg/kg/injection, schedule: Q01DX009 (ip), vehicle: saline 180 % of control

CSc1nc2[nH]c(C)cc2c(=O)[nH]1
inactive: endpoint: median survival time, dose: 50.0 mg/kg/injection, schedule: Q01DX005 (ip), vehicle: saline 102 % of control | endpoint: median survival time, dose: 100.0 mg/kg/injection, schedule: Q01DX005 (ip), vehicle: saline 95 % of control | endpoint: median survival time, dose: 200.0 mg/kg/injection, schedule: Q01DX005 (ip), vehicle: saline 92 % of control

Cc1ccc(CC(=O)O)cc1C
inactive: [8] 98 % of control | [9] 95 % of control | [10] 98 % of control

CCOP1(=S)Nc2cc(C)c(C)cc2N1
inactive: [1] 98 % of control | [2] 87 % of control | [3] 87 % of control | [4] 87 % of control

O=C(OCc1ccccc1)C1CCCN1C(=O)C(CSC(c1ccccc1)(c1ccccc1)c1ccccc1)NC(c1ccccc1)(c1ccccc1)c1ccccc1 (stereo not drawn)
inactive: [14] 97 % of control | [15] 97 % of control | [16] 95 % of control | [21] 95 % of control

[Cl][Pt+2][Cl].[NH-]c1ccc(Cl)cc1[NH-]
inactive: endpoint: mean survival time, dose: 2.5 mg/kg/injection, schedule: Q01DX009 (ip), vehicle: saline with Tween-80 113 % of control | endpoint: mean survival time, dose: 5.0 mg/kg/injection, schedule: Q01DX009 (ip), vehicle: saline with Tween-80 118 % of control
active: endpoint: mean survival time, dose: 40.0 mg/kg/injection, schedule: Q01DX009 (ip), vehicle: saline with Tween-80 179 % of control
